Laboratory results taken from patent US8361992B2 (Dekk-Tec, Inc., priority 2009, dated 2013).
Where two headings read alike, the source gives them in different places.

How the values were obtained:
SAOS-2 Osteosarcoma = experiment: SAOS-2 xenograft (sc); type: in vivo, human; details: sc implant; intraperitoneal treatment; MTD
Protocol: (§1) 4-HOOI was tested against a number of additional solid tumor xenografts and leukemias.

[1] = system: Human breast cancer cell line MX-1; experiment: MX-1 xenograft implanted SC in mice; type: in vivo; details: IP once per day for 5 days; for MX-1 T-C: 4-HOOI 90, IFOS 40, IPM 40 mg/kg/day
Protocol: (§2) Human breast cancer cell lines MX-1 and ZR75-1 were implanted subcutaneously (SC). Human glioblastoma cell line U251 was implanted intracranially (IC) and P388 CPA-resistant murine leukemia cell line was injected intraperitoneally (IP). For IC implanted tumor cells, treatment was begun 5-7 days post-inoculation. For SC tumors, treatment was begun when the tumor was palpable (5-10 days post-inoculation). Mice were treated with the indicated dose of drug intraperitoneally once per day for 5 days.

Rat glioma 9 L cells = experiment: 9L rat glioma implanted subcutaneously in rats; details: doses as in Table 7
Protocol: Rat glioma 9 L cells (10^6 cells) were implanted subcutaneously in female Hsd:SD rats. […] Temozolomide (TMZ) was administered orally three times, four days apart. The rats were followed for 54 days.

[2] = system: NCI-H23 Non-small cell lung carcinoma; experiment: NCI-H23 xenograft (sc); type: in vivo, human; details: sc implant; intraperitoneal treatment; MTD
Protocol: as §1

[3] = system: Sprague Dawley female rats; experiment: Rat neurobehavioral modified Morris water maze and pathology; type: in vivo; details: for Pathology five days later (gross, confirmed by histology) / Memory and learning time intervals: single IP dose: IFOS 400, 4-HOOI 200, 4-HOOI.Lys 300 mg/kg; for Memory and learning time intervals: 1, 2, 3, 20 hours post-dosing
Protocol: Rat Dosing: Neuro-oncology studies with 4-HOOI were conducted to evaluate the product as compared to ifosfamide in a rat neurobehavioral modified Morris water maze. Ifosfamide produces coma and neuro-edema in high doses. […] Timings (six at each time) were measured at 1, 2, 3, and 20 hours post-dosing to monitor learning and memory. […] Histological examinations confirmed the gross observations.

mice = experiment: Mouse IV dosing toxicology; type: in vivo
Protocol: Specific emphasis was placed on documenting potential toxicities associated with IV administered peroxides, namely convulsions, hemolysis, arterial gas emboli-pulmonary damage, and neurological pathology.
Ranges of dosing were 60-400 mg/kg. […] Animals were monitored for 14 days post treatment.

OVCAR-3 Ovarian = experiment: OVCAR-3 xenograft (sc); type: in vivo, human; details: sc implant; intraperitoneal treatment; MTD
Protocol: as §1

SK-MEL-31 Melanoma = experiment: SK-MEL-31 xenograft (sc); type: in vivo, human; details: sc implant; intraperitoneal treatment; MTD
Protocol: as §1

[4] = system: NCI-H69 Small cell lung carcinoma; experiment: NCI-H69 xenograft (sc); type: in vivo, human; details: sc implant; intraperitoneal treatment; MTD
Protocol: as §1

[5] = system: Human glioblastoma cell line U251; experiment: U251 glioblastoma implanted intracranially in mice; details: in vivo
Protocol: as §2

[6] = for AUC values for acrolein (trapezoidal rule): 0-120, IV CPA 250, IFOS 400, 4-HOOI 100 mg/kg
Protocol: Half of each plasma sample was lyophilized to collect ACR in a dry ice/methanol-cooled trap. […] For chloroacetaldehyde, the other half of the plasma sample was treated directly with the above trapping agent and the same procedure was used (6 mins) compared with synthetic controls.

[7] = system: P388 CPA-resistant murine leukemia cell line; experiment: P388/CPA leukemia injected IP in mice; type: in vivo; details: IP once per day for 5 days, 4-HOOI 90, IFOS 40, IPM 40 mg/kg/day
Protocol: as §2

[8] = system: Human breast cancer cell line ZR75-1; experiment: ZR-75-1 xenograft implanted SC in mice; type: in vivo; details: IP once per day for 5 days, 4-HOOI 90, IFOS 40 mg/kg/day
Protocol: as §2

9 L rat glioma cells = experiment: Activity in vitro against 9L rat glioma cells in culture; type: cell-based; details: for IC50: dose range 0.1-1.00 μg/ml
Protocol: The IC50 for each compound and also ifosfamide was determined (Table 3).

[9] = system: Human glioblastoma cell line U251; details: cited from earlier work
humans = details: cited from earlier work
[10] = Stability profile of bulk 4-HOOI vs. 4-HOOI.Lys (HPLC, NMR)

O=P1(NCCCl)OCCCN1CCCl (stereo not shown) [IFOS, ifosfamide]
T-C (Days Delay), SAOS-2 (SAOS-2 Osteosarcoma): >61.9 days
MX-1 LTS (long term survivors) ([1]; 4-HOOI 90, IFOS 40 mg/kg/day): (No LTS)
MX-1 T-C [1]: 8.6 days
Hematuria (Rat glioma 9 L cells; rats bearing 9L glioma): observed
T-C (Days Delay), NCI-H23 [2]: 13.7 days
Clinical signs ([3]; IFOS 400 mg/kg single IP dose): shakes and tremors
Bone marrow evaluations ([3]; IFOS 400 mg/kg single IP dose, five days later): pancytopenia
Pathology five days later (gross, confirmed by histology) [3]: hemorrhagic cystitis with gross bleeding
Memory and learning time intervals [3]: normal learning behavioral patterns
Highest tolerated single IV dose (mice): 400 mg/kg
T-C (Days Delay), OVCAR-3 (OVCAR-3 Ovarian): 12.4 days
T-C (Days Delay), SK-MEL-31 (SK-MEL-31 Melanoma): 10.9 days
T-C (Days Delay), NCI-H69 [4]: 6.2 days
U251 CR (complete response, animals) [5]: (0/5 CR)
U251 T-C [5]: 50 days
AUC values for acrolein (trapezoidal rule) [6]: 960 mg·min/mL
Urinary hemorrhagic cystitis ([6]; mice): the pathology occurred at day 5 post dosing
P388/CPA (% ILS) [7]: +42 % ILS
ZR-75-1 CR (complete response) [8]: (17% CR)
ZR-75-1 T-C [8]: >43.8 days
Notes (9 L rat glioma cells): Inactive without
IC50 (9 L rat glioma cells; Glioma cell, read-out: IC50): > 1 mg/L

O=P1(N(CCCl)CCCl)NCCCO1 (stereo not shown) [CPA, cyclophosphamide]
AUC values for acrolein (trapezoidal rule) [6]: 1520 mg·min/mL

COc1nc(C(Cl)(Cl)Cl)c(Cl)c(OC(=O)O[C@H]2CC[C@@]3(C)C(=CC[C@H]4[C@@H]5CC[C@H]([C@H](C)CCCC(C)C)[C@@]5(C)CC[C@@H]43)C2)c1Cl [DM-CHOC-PEN, 4-demethylcholesteryloxycarbonylpenclomedine]
LTS in U251 glioblastoma ([9]; Morgan et al. 2009): 52 % LTS

O=P(O)(NCCCl)NCCCl [IPM, isophosphoramide mustard]
Dose limiting toxicity in humans (humans): renal tubular necrosis was dose limiting
MX-1 T-C [1]: 2.1 days
P388/CPA (% ILS) [7]: +85 % ILS

O=NN(CCCl)C(=O)NCCCl [BCNU, bis-chloronitrosourea]
ILS ([9]; gold standard for the treatment of gliomas): 72 % ILS

NCCCCC(N)C(=O)O.O=P1(NCCCl)OCCC(OO)N1CCCl (stereo not shown) [4-HOOI•Lys]
NMR ([10]; Time 0): Stable
NMR ([10]; Time 2 months): Stable
NMR ([10]; Time 4 months): Stable
NMR ([10]; Time 6.5 months): Stable
NMR ([10]; Time 10 months): Stable
CR (animals) (Rat glioma 9 L cells; SC in female Hsd:SD rats, followed 54 days): 9/9
Hematuria (Rat glioma 9 L cells; rats bearing 9L glioma): No hematuria
Weight loss (Rat glioma 9 L cells; rats bearing 9L glioma): No weight loss
Pathology five days later (gross, confirmed by histology) [3]: did not reveal hemorrhagic cystitis, renal tubular necrosis, or bone marrow depletion
Memory and learning time intervals [3]: no significant differences
Notes (9 L rat glioma cells): Stabilized form prevented
IC50 (9 L rat glioma cells): >1.0 mg/L
